How the values were obtained:
[1] = system: Salmonella typyhimurium TA 100; experiment: mutagenicity test (reverse mutation test) on hand sheet extract, Ministry of Labor Order No. 261; format: cell-based; details: compared with Sample 3-1 and 4-1 (DMTT) or Sample 7-1 and 8-1 (bromonitroalcohol)
Procedure: That is, each hand sheet was subjected to extraction using a mixture of benzene/ethanol (9/1, by volume) at 80° C. for three hours, and the resulting extractant was subjected to a reverse mutation test using Salmonella typyhimurium TA 100 without following a metabolism activating method.
When the number of reverse mutation colony increased to twice or more that in the case of dimethyl sulfoxide used as a control solvent, it was determined "positive".

[2] = Stockigt sizing degree of paper according to JIS P 8122; format: physicochemical; details: compared with Sample 3-1 and 4-1 (DMTT) or Sample 7-1 and 8-1 (bromonitroalcohol)
Procedure: The paper stock immediately after prepared was used to prepare a hand sheet having a basis weight of 60 g/m^2. The resulting sheet was dried at 80° C. for 5 min. in a hot air drier. The sheet thus prepared was called "Sample 1-1".
In the above, the sizing degree was measured by Testing method for Stockigt sizing degree of paper according to JIS P 8122.
The 0.1% addition of the alkylketene dimer should develop the sizing degree of 20-25 sec. unless other chemicals used together interfere with it.
The paper stock immediately after prepared was used to prepare a handmade sheet having a basis weight of 60 g/m^2. The resulting sheet was dried at 80° C. for 5 min. in a hot air drier. The sheet thus prepared was called "Sample 5-1".
(§1) Measurement of the sizing degree, evaluation of the mutagenicity, and ninhydrin reaction in Table 3 and Table 4 were conducted in the same manner as in Table 1 and Table 2.

slime = experiment: ninhydrin reaction of the paper stock filtrate (slime formation); details: for slime inhibiting effect: slimecide added in advance to cationic starch, compared with conventional direct addition
Procedure: (§2) A part of the paper stock as obtained above was stored at 32° C. for 7 days and then, filtered by means of a wire screen. The filtrate was subjected to ninhydrin reaction and the effectiveness of the slimecide controlling agent was evaluated based on the result of the ninhydrin reaction. The filtrate was called "Sample 1-2".
Ninhydrin reaction was effected by adding 0.5 ml of a 1% aqueous solution of nonhydrin to 10 ml of the filtrate, and the result was evaluated depending on the degree of color change of the resulting solution to reddish purple.
as §2, with “net.” for “screen.”, “slime” for “slimecide”, “5-2".” for “1-2".”
as §1

Row | Compound | safety for man [1] | effect on sizing [2] | amount of slimecide relative to amount added in conventional manner (slime; slime inhibition with slimecide added in advance to cationic starch, based on paper stock solid matter) | slime inhibiting effect (slime)
1 | O=[N+]([O-])C(Br)(CO)CO [2-bromo-2-nitropropane-1,3-diol] | neither harmful to man | nor adversely affects the sizing property | about 1/10 | slime formation can be effectively inhibited
2 | CN1CSC(=S)N(C)C1 [DMTT, 3,5-dimethyltetrahydro-1,3,5-2H-thiadiazine-2-thione] | – | minimal adverse effect on sizing | – | excellent slime inhibiting effect
